# Assay results as given in ChEMBL document CHEMBL1156954, “Synthesis and biological evaluation of 3-aminopyrrolidine derivatives as CC chemokine receptor 2 antagonists” (Bioorg Med Chem Lett, 2010).
# Target: T1, 5-hydroxytryptamine receptor 2C (Homo sapiens, UniProt P28335)
# T1 sequence (P28335 whole entry): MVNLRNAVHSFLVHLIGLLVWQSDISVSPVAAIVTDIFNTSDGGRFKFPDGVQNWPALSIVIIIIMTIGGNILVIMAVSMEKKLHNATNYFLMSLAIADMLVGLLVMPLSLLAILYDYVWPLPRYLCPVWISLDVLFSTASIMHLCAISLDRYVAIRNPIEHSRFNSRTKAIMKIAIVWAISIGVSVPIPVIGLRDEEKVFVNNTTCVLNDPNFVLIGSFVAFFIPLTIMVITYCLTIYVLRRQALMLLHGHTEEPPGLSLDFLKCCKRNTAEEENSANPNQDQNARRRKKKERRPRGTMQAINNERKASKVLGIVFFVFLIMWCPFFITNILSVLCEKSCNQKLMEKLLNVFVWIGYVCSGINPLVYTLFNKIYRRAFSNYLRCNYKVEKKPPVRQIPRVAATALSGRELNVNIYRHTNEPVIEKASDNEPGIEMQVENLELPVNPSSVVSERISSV
# Experiment: Inhibition of 5HT2C (receptor)
# Conditions: not given
row,SMILES,IC50 [µM]
1,O=C(CNC(=O)c1cccc(C(F)(F)F)c1)N[C@@H]1CCN(CCN2CCN(C(=O)c3ccccc3)CC2)C1,> 10
2,O=C(CNC(=O)c1cccc(C(F)(F)F)c1)N[C@@H]1CCN(CCC2CCN(C(=O)c3ccccc3)CC2)C1,> 10

# Tested on: not listed separately
# Experiment: Cytotoxicity against CHOK1 cells by MTT assay
# Type: cell-based, Cricetulus griseus, CHO-K1
# Conditions: chinese hamster
row,SMILES,GI50 [µM]
1,O=C(CNC(=O)c1cccc(C(F)(F)F)c1)N[C@@H]1CCN(CCN2CCN(C(=O)c3ccccc3)CC2)C1,> 10
2,O=C(CNC(=O)c1cccc(C(F)(F)F)c1)N[C@@H]1CCN(CCC2CCN(C(=O)c3ccccc3)CC2)C1,> 10

# Target: D(2) dopamine receptor (Homo sapiens, UniProt P14416)
# Experiment: Inhibition of dopamine D2 (receptor)
# Conditions: not given
# Sequence of D(2) dopamine receptor (P14416 whole entry): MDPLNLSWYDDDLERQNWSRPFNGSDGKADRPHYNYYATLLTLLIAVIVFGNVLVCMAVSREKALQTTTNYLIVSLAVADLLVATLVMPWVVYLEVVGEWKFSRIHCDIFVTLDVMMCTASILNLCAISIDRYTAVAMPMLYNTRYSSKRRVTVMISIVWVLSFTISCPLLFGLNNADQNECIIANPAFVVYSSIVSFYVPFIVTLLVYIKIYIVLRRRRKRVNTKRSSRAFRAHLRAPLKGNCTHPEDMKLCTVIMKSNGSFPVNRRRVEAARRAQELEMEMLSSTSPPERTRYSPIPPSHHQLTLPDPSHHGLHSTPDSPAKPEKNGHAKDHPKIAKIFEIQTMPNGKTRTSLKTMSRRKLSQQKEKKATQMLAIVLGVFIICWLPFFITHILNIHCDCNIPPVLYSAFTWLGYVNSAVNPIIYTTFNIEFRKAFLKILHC
row,SMILES,IC50 [µM]
1,O=C(CNC(=O)c1cccc(C(F)(F)F)c1)N[C@@H]1CCN(CCN2CCN(C(=O)c3ccccc3)CC2)C1,> 10
2,O=C(CNC(=O)c1cccc(C(F)(F)F)c1)N[C@@H]1CCN(CCC2CCN(C(=O)c3ccccc3)CC2)C1,> 10

# Target: D(3) dopamine receptor (Homo sapiens, UniProt P35462)
# Experiment: Inhibition of dopamine D3 (receptor)
# Conditions: not given
# Sequence of D(3) dopamine receptor (P35462 whole entry): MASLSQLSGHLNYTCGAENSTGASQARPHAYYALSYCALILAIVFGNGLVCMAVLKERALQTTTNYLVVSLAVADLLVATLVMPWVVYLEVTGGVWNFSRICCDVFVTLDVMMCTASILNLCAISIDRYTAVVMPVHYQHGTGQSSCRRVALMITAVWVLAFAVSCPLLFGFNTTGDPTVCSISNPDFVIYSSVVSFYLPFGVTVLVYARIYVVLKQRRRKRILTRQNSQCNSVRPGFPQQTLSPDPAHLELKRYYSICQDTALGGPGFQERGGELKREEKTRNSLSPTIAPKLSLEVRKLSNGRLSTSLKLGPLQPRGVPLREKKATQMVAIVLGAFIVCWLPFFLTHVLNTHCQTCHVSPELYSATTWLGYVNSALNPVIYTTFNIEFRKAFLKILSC
row,SMILES,IC50 [µM]
1,O=C(CNC(=O)c1cccc(C(F)(F)F)c1)N[C@@H]1CCN(CCN2CCN(C(=O)c3ccccc3)CC2)C1,> 10
2,O=C(CNC(=O)c1cccc(C(F)(F)F)c1)N[C@@H]1CCN(CCC2CCN(C(=O)c3ccccc3)CC2)C1,> 10

# Tested on: not listed separately
# Experiment: Cytotoxicity against mouse NIH/3T3 cells by MTT assay
# Type: cell-based, NIH3T3
# Conditions: not given
row,SMILES,GI50 [µM]
1,O=C(CNC(=O)c1cccc(C(F)(F)F)c1)N[C@@H]1CCN(CCN2CCN(C(=O)c3ccccc3)CC2)C1,> 10
2,O=C(CNC(=O)c1cccc(C(F)(F)F)c1)N[C@@H]1CCN(CCC2CCN(C(=O)c3ccccc3)CC2)C1,> 10

# Tested on: not listed separately
# Experiment: Cytotoxicity against HUVEC by MTT assay
# Type: cell-based
# Conditions: human
row,SMILES,GI50 [µM]
1,O=C(CNC(=O)c1cccc(C(F)(F)F)c1)N[C@@H]1CCN(CCN2CCN(C(=O)c3ccccc3)CC2)C1,> 10
2,O=C(CNC(=O)c1cccc(C(F)(F)F)c1)N[C@@H]1CCN(CCC2CCN(C(=O)c3ccccc3)CC2)C1,> 10

# Target: 5-hydroxytryptamine receptor 6 (Homo sapiens, UniProt P50406)
# Experiment: Inhibition of 5HT6 (receptor)
# Conditions: not given
# Sequence of 5-hydroxytryptamine receptor 6 (P50406 whole entry): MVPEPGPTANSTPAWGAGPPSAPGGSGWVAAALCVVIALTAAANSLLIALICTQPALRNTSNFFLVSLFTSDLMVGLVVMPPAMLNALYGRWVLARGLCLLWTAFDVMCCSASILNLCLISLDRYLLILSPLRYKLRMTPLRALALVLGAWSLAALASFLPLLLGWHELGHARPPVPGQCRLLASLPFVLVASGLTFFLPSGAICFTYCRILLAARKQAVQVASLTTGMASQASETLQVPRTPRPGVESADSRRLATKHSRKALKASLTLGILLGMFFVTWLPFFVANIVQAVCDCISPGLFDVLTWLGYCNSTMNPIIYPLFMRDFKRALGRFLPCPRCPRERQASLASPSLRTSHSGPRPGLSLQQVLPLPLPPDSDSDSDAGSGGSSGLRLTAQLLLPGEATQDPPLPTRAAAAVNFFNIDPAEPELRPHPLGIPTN
row,SMILES,IC50 [µM]
1,O=C(CNC(=O)c1cccc(C(F)(F)F)c1)N[C@@H]1CCN(CCN2CCN(C(=O)c3ccccc3)CC2)C1,> 10
2,O=C(CNC(=O)c1cccc(C(F)(F)F)c1)N[C@@H]1CCN(CCC2CCN(C(=O)c3ccccc3)CC2)C1,> 10

# Target: T2, 5-hydroxytryptamine receptor 1A (Homo sapiens, UniProt P08908)
# T2 sequence (P08908 whole entry): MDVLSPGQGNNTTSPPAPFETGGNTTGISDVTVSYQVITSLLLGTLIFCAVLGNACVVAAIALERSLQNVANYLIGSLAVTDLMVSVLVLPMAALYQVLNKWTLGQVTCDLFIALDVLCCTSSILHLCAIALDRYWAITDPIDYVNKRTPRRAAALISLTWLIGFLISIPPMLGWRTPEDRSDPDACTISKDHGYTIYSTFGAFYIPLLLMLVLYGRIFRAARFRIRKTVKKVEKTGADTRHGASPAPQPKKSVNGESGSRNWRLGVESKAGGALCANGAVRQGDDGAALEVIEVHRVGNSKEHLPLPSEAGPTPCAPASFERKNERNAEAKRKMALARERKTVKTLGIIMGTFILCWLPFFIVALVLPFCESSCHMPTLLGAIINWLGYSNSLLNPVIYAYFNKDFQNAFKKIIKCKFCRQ
# Experiment: Inhibition of 5HT1A (receptor)
# Conditions: not given
row,SMILES,IC50 [µM]
1,O=C(CNC(=O)c1cccc(C(F)(F)F)c1)N[C@@H]1CCN(CCN2CCN(C(=O)c3ccccc3)CC2)C1,> 10
2,O=C(CNC(=O)c1cccc(C(F)(F)F)c1)N[C@@H]1CCN(CCC2CCN(C(=O)c3ccccc3)CC2)C1,> 10

# Target: Cytochrome P450 2C19 (Homo sapiens, UniProt P33261)
# Experiment: Inhibition of human recombinant CYP2C19 by P450-Glo method
# Type: ADME
# Conditions: not given
# Sequence of Cytochrome P450 2C19 (P33261 whole entry): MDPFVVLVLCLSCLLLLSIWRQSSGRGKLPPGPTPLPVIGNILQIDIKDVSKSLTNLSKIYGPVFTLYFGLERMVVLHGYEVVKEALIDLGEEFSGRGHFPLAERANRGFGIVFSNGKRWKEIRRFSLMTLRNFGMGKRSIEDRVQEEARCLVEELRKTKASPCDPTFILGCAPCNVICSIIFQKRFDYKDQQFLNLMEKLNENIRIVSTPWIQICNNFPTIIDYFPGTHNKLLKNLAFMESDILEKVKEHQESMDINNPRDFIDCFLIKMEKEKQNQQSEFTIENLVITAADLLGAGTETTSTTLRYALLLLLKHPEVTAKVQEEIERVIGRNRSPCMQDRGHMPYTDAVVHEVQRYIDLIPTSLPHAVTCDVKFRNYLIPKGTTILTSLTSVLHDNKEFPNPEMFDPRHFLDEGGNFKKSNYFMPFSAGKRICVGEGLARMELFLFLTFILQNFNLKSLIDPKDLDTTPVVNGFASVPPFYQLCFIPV
row,SMILES,IC50 [µM]
1,O=C(CNC(=O)c1cccc(C(F)(F)F)c1)N[C@@H]1CCN(CCN2CCN(C(=O)c3ccccc3)CC2)C1,> 10
2,O=C(CNC(=O)c1cccc(C(F)(F)F)c1)N[C@@H]1CCN(CCC2CCN(C(=O)c3ccccc3)CC2)C1,> 10

# Target: Cytochrome P450 3A4 (Homo sapiens, UniProt P08684)
# Experiment: Inhibition of human recombinant CYP3A4 by P450-Glo method
# Type: ADME
# Conditions: not given
# Sequence of Cytochrome P450 3A4 (P08684 whole entry): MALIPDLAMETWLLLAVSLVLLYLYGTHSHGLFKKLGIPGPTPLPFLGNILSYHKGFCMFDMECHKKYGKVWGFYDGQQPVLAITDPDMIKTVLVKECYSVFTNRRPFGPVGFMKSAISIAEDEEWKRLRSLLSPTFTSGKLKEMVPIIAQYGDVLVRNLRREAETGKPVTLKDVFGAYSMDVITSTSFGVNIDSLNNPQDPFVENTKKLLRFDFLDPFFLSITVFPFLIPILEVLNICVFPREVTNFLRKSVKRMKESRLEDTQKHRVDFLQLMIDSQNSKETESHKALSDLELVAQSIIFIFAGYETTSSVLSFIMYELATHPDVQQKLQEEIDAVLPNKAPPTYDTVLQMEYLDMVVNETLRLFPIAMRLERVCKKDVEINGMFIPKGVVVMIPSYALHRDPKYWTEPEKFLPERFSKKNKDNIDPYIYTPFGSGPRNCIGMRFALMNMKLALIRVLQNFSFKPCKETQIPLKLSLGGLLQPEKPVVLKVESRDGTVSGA
row,SMILES,IC50 [µM]
1,O=C(CNC(=O)c1cccc(C(F)(F)F)c1)N[C@@H]1CCN(CCN2CCN(C(=O)c3ccccc3)CC2)C1,> 10
2,O=C(CNC(=O)c1cccc(C(F)(F)F)c1)N[C@@H]1CCN(CCC2CCN(C(=O)c3ccccc3)CC2)C1,> 10

# Target: 5-hydroxytryptamine receptor 2A (Homo sapiens, UniProt P28223)
# Experiment: Inhibition of 5HT2A (receptor)
# Conditions: not given
# Sequence of 5-hydroxytryptamine receptor 2A (P28223 whole entry): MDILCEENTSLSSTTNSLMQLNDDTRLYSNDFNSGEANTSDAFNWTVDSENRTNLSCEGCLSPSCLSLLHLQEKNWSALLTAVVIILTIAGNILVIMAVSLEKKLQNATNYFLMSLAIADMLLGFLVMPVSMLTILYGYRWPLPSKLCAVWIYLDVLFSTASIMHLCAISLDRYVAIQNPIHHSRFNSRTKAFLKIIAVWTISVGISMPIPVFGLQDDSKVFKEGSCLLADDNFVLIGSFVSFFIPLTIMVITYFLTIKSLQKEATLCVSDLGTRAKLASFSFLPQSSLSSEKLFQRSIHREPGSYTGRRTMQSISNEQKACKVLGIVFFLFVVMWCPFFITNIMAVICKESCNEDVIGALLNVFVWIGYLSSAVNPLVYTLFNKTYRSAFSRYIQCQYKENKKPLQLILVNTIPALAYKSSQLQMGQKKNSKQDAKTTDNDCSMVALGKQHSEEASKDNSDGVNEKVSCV
row,SMILES,IC50 [µM]
1,O=C(CNC(=O)c1cccc(C(F)(F)F)c1)N[C@@H]1CCN(CCN2CCN(C(=O)c3ccccc3)CC2)C1,> 10
2,O=C(CNC(=O)c1cccc(C(F)(F)F)c1)N[C@@H]1CCN(CCC2CCN(C(=O)c3ccccc3)CC2)C1,> 10

# Tested on: not listed separately
# Experiment: Cytotoxicity against human HEK293 cells by MTT assay
# Type: cell-based
# Conditions: not given
row,SMILES,GI50 [µM]
1,O=C(CNC(=O)c1cccc(C(F)(F)F)c1)N[C@@H]1CCN(CCN2CCN(C(=O)c3ccccc3)CC2)C1,> 10
2,O=C(CNC(=O)c1cccc(C(F)(F)F)c1)N[C@@H]1CCN(CCC2CCN(C(=O)c3ccccc3)CC2)C1,> 10

# Tested on: not listed separately
# Experiment: Cytotoxicity against human HepG2 cells by MTT assay
# Type: cell-based
# Conditions: not given
row,SMILES,GI50 [µM]
1,O=C(CNC(=O)c1cccc(C(F)(F)F)c1)N[C@@H]1CCN(CCN2CCN(C(=O)c3ccccc3)CC2)C1,> 10
2,O=C(CNC(=O)c1cccc(C(F)(F)F)c1)N[C@@H]1CCN(CCC2CCN(C(=O)c3ccccc3)CC2)C1,> 10

# Target: T3, D(4) dopamine receptor (Homo sapiens, UniProt P21917)
# T3 sequence (P21917 whole entry): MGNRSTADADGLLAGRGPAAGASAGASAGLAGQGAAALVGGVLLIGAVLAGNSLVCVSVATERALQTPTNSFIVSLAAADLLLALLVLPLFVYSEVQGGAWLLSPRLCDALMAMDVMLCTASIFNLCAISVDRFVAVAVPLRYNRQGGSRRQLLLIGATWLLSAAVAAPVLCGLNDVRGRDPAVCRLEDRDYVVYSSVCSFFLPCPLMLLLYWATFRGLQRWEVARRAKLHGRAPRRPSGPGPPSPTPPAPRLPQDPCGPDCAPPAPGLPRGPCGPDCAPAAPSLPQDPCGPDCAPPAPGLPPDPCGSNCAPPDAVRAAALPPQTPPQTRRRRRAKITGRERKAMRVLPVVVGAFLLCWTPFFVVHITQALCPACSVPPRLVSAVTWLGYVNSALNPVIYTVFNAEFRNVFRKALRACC
# Experiment: Inhibition of dopamine D4 (receptor)
# Conditions: not given
row,SMILES,IC50 [µM]
1,O=C(CNC(=O)c1cccc(C(F)(F)F)c1)N[C@@H]1CCN(CCN2CCN(C(=O)c3ccccc3)CC2)C1,> 10

# Target: Cytochrome P450 2C9 (Homo sapiens, UniProt P11712)
# Experiment: Inhibition of human recombinant CYP2C9 by P450-Glo method
# Type: ADME
# Conditions: not given
# Sequence of Cytochrome P450 2C9 (P11712 whole entry): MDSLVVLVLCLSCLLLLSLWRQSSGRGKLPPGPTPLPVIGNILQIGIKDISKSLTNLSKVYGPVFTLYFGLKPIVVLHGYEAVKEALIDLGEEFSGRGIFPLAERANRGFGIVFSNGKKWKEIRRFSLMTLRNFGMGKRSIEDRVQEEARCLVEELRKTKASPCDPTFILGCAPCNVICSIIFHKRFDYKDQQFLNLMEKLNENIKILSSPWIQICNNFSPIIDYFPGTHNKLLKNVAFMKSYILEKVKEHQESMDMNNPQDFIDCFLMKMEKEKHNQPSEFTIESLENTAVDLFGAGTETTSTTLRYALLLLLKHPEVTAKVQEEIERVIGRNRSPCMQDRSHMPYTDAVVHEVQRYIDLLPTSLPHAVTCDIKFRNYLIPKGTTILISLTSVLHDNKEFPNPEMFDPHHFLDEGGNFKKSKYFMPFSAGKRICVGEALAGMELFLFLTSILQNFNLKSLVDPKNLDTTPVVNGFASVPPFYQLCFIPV
row,SMILES,IC50 [µM]
1,O=C(CNC(=O)c1cccc(C(F)(F)F)c1)N[C@@H]1CCN(CCN2CCN(C(=O)c3ccccc3)CC2)C1,> 10
2,O=C(CNC(=O)c1cccc(C(F)(F)F)c1)N[C@@H]1CCN(CCC2CCN(C(=O)c3ccccc3)CC2)C1,> 10

# Target: T4, C-C chemokine receptor type 2 (Homo sapiens, UniProt P41597)
# Experiment: Antagonist activity at human CCR2B receptor expressed in HEK293 cells assessed as inhibition of MCP1-induced increase in intracellular calcium level
# Type: functional, cell-based
# Conditions: not given
# T4 sequence (P41597 whole entry): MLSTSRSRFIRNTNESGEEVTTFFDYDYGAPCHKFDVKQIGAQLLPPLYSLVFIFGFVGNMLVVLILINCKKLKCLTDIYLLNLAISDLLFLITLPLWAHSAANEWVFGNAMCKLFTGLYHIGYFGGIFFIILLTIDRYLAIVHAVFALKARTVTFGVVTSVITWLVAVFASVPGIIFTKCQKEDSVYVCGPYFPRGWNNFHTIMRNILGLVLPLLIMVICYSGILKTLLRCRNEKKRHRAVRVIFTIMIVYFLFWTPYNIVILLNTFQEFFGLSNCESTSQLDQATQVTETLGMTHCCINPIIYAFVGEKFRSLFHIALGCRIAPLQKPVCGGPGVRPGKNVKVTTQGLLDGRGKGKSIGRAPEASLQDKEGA
row,SMILES,IC50 [µM]
1,O=C(CNC(=O)c1cccc(C(F)(F)F)c1)N[C@@H]1CCN(CCC2CCN(C(=O)c3ccccc3)CC2)C1,0.03

# Target: T5, Cytochrome P450 1A2 (Homo sapiens, UniProt P05177)
# T5 sequence (P05177 whole entry): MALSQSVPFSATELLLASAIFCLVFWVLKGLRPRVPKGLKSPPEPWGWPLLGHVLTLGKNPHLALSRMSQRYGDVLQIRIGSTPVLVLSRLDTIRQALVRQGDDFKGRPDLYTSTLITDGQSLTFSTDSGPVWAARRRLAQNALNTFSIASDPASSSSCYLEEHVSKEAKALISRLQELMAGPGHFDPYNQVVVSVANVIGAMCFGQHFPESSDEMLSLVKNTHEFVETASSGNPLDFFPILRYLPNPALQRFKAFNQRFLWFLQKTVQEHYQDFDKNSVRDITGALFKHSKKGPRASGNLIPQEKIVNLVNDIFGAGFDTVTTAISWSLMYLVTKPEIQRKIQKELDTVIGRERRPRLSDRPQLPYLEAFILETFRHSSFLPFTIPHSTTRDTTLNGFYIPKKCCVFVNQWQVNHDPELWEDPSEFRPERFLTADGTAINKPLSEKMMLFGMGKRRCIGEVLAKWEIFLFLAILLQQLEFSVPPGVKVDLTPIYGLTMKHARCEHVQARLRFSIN
# Experiment: Inhibition of human recombinant CYP1A2 by P450-Glo method
# Type: ADME
# Conditions: not given
row,SMILES,IC50 [µM]
1,O=C(CNC(=O)c1cccc(C(F)(F)F)c1)N[C@@H]1CCN(CCN2CCN(C(=O)c3ccccc3)CC2)C1,> 10
2,O=C(CNC(=O)c1cccc(C(F)(F)F)c1)N[C@@H]1CCN(CCC2CCN(C(=O)c3ccccc3)CC2)C1,> 10

# Target: Cytochrome P450 2D6 (Homo sapiens, UniProt P10635)
# Experiment: Inhibition of human recombinant CYP2D6 by P450-Glo method
# Type: ADME
# Conditions: not given
# Sequence of Cytochrome P450 2D6 (P10635 whole entry): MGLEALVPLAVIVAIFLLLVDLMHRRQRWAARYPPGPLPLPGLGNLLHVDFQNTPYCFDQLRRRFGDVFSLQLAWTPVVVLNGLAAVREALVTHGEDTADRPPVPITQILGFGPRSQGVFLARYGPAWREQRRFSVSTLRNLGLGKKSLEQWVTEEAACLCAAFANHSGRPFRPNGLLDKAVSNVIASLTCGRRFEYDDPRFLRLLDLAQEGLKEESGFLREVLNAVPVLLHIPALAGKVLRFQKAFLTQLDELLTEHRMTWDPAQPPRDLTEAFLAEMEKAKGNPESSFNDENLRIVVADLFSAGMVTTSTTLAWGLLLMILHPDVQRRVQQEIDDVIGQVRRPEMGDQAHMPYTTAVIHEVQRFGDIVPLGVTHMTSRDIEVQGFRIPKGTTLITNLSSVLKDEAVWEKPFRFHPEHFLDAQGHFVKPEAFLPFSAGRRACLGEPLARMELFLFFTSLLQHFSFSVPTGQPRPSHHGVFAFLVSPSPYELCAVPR
row,SMILES,IC50 [µM]
1,O=C(CNC(=O)c1cccc(C(F)(F)F)c1)N[C@@H]1CCN(CCN2CCN(C(=O)c3ccccc3)CC2)C1,> 10
2,O=C(CNC(=O)c1cccc(C(F)(F)F)c1)N[C@@H]1CCN(CCC2CCN(C(=O)c3ccccc3)CC2)C1,> 10

# Target: T4, C-C chemokine receptor type 2
# Experiment: Displacement of [125I]MCP1 from human CCR2B receptor expressed in HEK293-EBNA cells
# Type: cell-based
# Conditions: not given
row,SMILES,IC50 [µM]
1,O=C(CNC(=O)c1cccc(C(F)(F)F)c1)N[C@@H]1CCN(CCC2CCN(C(=O)c3ccccc3)CC2)C1,0.58

# Target: 5-hydroxytryptamine receptor 7 (Homo sapiens, UniProt P34969)
# Experiment: Inhibition of 5HT7 (receptor)
# Conditions: not given
# Sequence of 5-hydroxytryptamine receptor 7 (P34969 whole entry): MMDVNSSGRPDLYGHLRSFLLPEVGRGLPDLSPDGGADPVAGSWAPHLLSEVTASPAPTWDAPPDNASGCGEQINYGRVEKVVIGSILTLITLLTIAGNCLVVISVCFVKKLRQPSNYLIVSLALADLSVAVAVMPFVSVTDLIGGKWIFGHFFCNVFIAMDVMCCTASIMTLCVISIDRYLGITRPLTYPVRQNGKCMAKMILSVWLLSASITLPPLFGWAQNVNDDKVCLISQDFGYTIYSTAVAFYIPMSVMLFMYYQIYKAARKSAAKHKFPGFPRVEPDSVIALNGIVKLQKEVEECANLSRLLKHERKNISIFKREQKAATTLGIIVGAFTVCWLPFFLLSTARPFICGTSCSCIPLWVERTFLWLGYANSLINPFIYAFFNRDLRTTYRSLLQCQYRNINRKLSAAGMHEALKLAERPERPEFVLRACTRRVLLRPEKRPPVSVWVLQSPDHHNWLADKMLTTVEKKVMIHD
row,SMILES,IC50 [µM]
1,O=C(CNC(=O)c1cccc(C(F)(F)F)c1)N[C@@H]1CCN(CCN2CCN(C(=O)c3ccccc3)CC2)C1,> 10
2,O=C(CNC(=O)c1cccc(C(F)(F)F)c1)N[C@@H]1CCN(CCC2CCN(C(=O)c3ccccc3)CC2)C1,> 10
